Test results taken from ChEMBL document CHEMBL1147864, “Synthesis of new sugar derivatives from Stachys sieboldi Miq and antibacterial evaluation against Mycobacterium tuberculosis, Mycobacterium avium, and Staphylococcus aureus” (2007).
In brackets after ≈: the same amount, converted by molar mass.

Assays:
Assay type in all cases: functional
Conditions in all cases: 336 h
[1] = tested on: Mycobacterium tuberculosis; assay: Antimycobacterial activity against isoniazide-rifampicin-streptomycin-ethambutol-resistant Mycobacterium tuberculosis V-1-16 after 2 weeks by broth dilution method
[2] = tested on: Mycobacterium tuberculosis; assay: Antimycobacterial activity against isoniazide-rifampicin-streptomycin-ethambutol-resistant Mycobacterium tuberculosis P-1-50 after 2 weeks by broth dilution method
[3] = tested on: Mycobacterium tuberculosis; assay: Antimycobacterial activity against isoniazide-rifampicin-streptomycin-ethambutol-resistant Mycobacterium tuberculosis Q-4-1 after 2 weeks by broth dilution method
[4] = tested on: Mycobacterium tuberculosis; assay: Antimycobacterial activity against isoniazide resistant Mycobacterium tuberculosis K-3-6 after 2 weeks by broth dilution method
[5] = tested on: Mycobacterium tuberculosis; assay: Antimycobacterial activity against isoniazide-streptomycin resistant Mycobacterium tuberculosis A-4-25 after 2 weeks by broth dilution method
[6] = tested on: Mycobacterium tuberculosis; assay: Antimycobacterial activity against streptomycin resistant Mycobacterium tuberculosis A-4-8 after 2 weeks by broth dilution method
[7] = tested on: Mycobacterium tuberculosis; assay: Antimycobacterial activity against isoniazide-rifampicin resistant Mycobacterium tuberculosis A-2-3 after 2 weeks by broth dilution method
[8] = tested on: Mycobacterium tuberculosis; assay: Antimycobacterial activity against isoniazide-rifampicin-streptomycin-ethambutol-resistant Mycobacterium tuberculosis R-1-38 after 2 weeks by broth dilution method
[9] = tested on: Mycobacterium tuberculosis; assay: Antimycobacterial activity against isoniazide-rifampicin-streptomycin-ethambutol-resistant Mycobacterium tuberculosis E-1-40 after 2 weeks by broth dilution method
[10] = tested on: Mycobacterium tuberculosis; assay: Antimycobacterial activity against isoniazide-rifampicin-streptomycin-ethambutol-resistant Mycobacterium tuberculosis M-1-32 after 2 weeks by broth dilution method
[11] = tested on: Mycobacterium tuberculosis; assay: Antimycobacterial activity against isoniazide-rifampicin-streptomycin-ethambutol-resistant Mycobacterium tuberculosis U-4-6 after 2 weeks by broth dilution method
[12] = tested on: Mycobacterium tuberculosis; assay: Antimycobacterial activity against rifampicin resistant Mycobacterium tuberculosis A-2-4 after 2 weeks by broth dilution method
[13] = tested on: Mycobacterium tuberculosis; assay: Antimycobacterial activity against streptomycin resistant Mycobacterium tuberculosis A-3-47 after 2 weeks by broth dilution method
[14] = tested on: Mycobacterium tuberculosis; assay: Antimycobacterial activity against isoniazide-rifampicin-streptomycin-ethambutol-resistant Mycobacterium tuberculosis U-2-15 after 2 weeks by broth dilution method
[15] = tested on: Mycobacterium tuberculosis; assay: Antimycobacterial activity against isoniazide-rifampicin-streptomycin-ethambutol-resistant Mycobacterium tuberculosis Z-1-2 after 2 weeks by broth dilution method
[16] = tested on: Mycobacterium tuberculosis; assay: Antimycobacterial activity against isoniazide-rifampicin-streptomycin-ethambutol-resistant Mycobacterium tuberculosis Z-1-4 after 2 weeks by broth dilution method
[17] = tested on: Mycobacterium tuberculosis; assay: Antimycobacterial activity against isoniazide-rifampicin-ethambutol-resistant Mycobacterium tuberculosis N-4-11 after 2 weeks by broth dilution method
[18] = tested on: Mycobacterium tuberculosis; assay: Antimycobacterial activity against isoniazide-rifampicin-streptomycin-ethambutol-resistant Mycobacterium tuberculosis N-5-2 after 2 weeks by broth dilution method
[19] = tested on: Mycobacterium tuberculosis; assay: Antimycobacterial activity against isoniazide-rifampicin-ethambutol-resistant Mycobacterium tuberculosis A-4-30 after 2 weeks by broth dilution method
[20] = tested on: Mycobacterium tuberculosis; assay: Antimycobacterial activity against isoniazide-rifampicin-streptomycin-ethambutol-resistant Mycobacterium tuberculosis A-2-6 after 2 weeks by broth dilution method
[21] = tested on: Mycobacterium tuberculosis; assay: Antimycobacterial activity against isoniazide-rifampicin-streptomycin-ethambutol-resistant Mycobacterium tuberculosis P-4-11after 2 weeks by broth dilution method
[22] = tested on: Mycobacterium tuberculosis; assay: Antimycobacterial activity against isoniazide resistant Mycobacterium tuberculosis A-2-1 after 2 weeks by broth dilution method
[23] = tested on: Mycobacterium tuberculosis; assay: Antimycobacterial activity against isoniazide-rifampicin-streptomycin-ethambutol-resistant Mycobacterium tuberculosis S-1-14 after 2 weeks by broth dilution method
[24] = tested on: Mycobacterium tuberculosis; assay: Antimycobacterial activity against isoniazide-rifampicin-ethambutol-resistant Mycobacterium tuberculosis J-1-19 after 2 weeks by broth dilution method
[25] = tested on: Mycobacterium tuberculosis; assay: Antimycobacterial activity against isoniazide-rifampicin-streptomycin-ethambutol-resistant Mycobacterium tuberculosis C-1-29 after 2 weeks by broth dilution method

`C=CCO[C@@H]1O[C@H](CO[C@H]2O[C@H](CO[C@H]3O[C@H](COC(C)=O)[C@H](OC(C)=O)[C@H](OC(C)=O)[C@H]3OC(C)=O)[C@H](OC(C)=O)[C@H](OC(C)=O)[C@H]2OC(C)=O)[C@@H](OC(C)=O)[C@H](OC(C)=O)[C@H]1OC(C)=O` was tested, and the MIC [1] was 6.25 µg/mL (≈ 6.48 µM), the MIC [2] was 3.13 µg/mL (≈ 3.24 µM) and the MIC [3] was 6.25 µg/mL (≈ 6.48 µM). For the same compound, the MIC [4] was 3.13 µg/mL (≈ 3.24 µM), the MIC [5] was 12.5 µg/mL (≈ 13 µM) and the MIC [6] was 6.25 µg/mL (≈ 6.48 µM). For the same compound, the MIC [7] was 3.13 µg/mL (≈ 3.24 µM), the MIC [8] was 6.25 µg/mL (≈ 6.48 µM) and the MIC [9] was 6.25 µg/mL (≈ 6.48 µM). For the same compound, the MIC [10] was 3.13 µg/mL (≈ 3.24 µM), the MIC [11] was 1.56 µg/mL (≈ 1.62 µM) and the MIC [12] was 12.5 µg/mL (≈ 13 µM). The MIC [13] was 3.13 µg/mL (≈ 3.24 µM), the MIC [14] was 6.25 µg/mL (≈ 6.48 µM) and the MIC [15] was 3.13 µg/mL (≈ 3.24 µM). For the same compound, the MIC [16] was 6.25 µg/mL (≈ 6.48 µM), the MIC [17] was 3.13 µg/mL (≈ 3.24 µM) and the MIC [18] was 3.13 µg/mL (≈ 3.24 µM). For the same compound, the MIC [19] was 6.25 µg/mL (≈ 6.48 µM), the MIC [20] was 6.25 µg/mL (≈ 6.48 µM) and the MIC [21] was 3.13 µg/mL (≈ 3.24 µM). It also gave an MIC [22] of 3.13 µg/mL (≈ 3.24 µM), an MIC [23] of 6.25 µg/mL (≈ 6.48 µM) and an MIC [24] of 3.13 µg/mL (≈ 3.24 µM). It also gave an MIC [25] of 12.5 µg/mL (≈ 13 µM).
